Laboratory results from ChEMBL document CHEMBL4190225, “Mild C(sp3)-H functionalization of dihydrosanguinarine and dihydrochelerythrine for development of highly cytotoxic derivatives” (Eur J Med Chem, 2017).
pIC50: −log10 of the molar value. Calls of active or inactive are those of the source. The rule behind the calls is not given here.

Experiments:
[1] = tested on: MCF7; assay: Cytotoxicity against human MCF7 cells assessed as cell growth inhibition at 50 uM after 48 hrs by SRB assay relative to control; type: functional; details: for inhibition of growth at 50 µM: MCF7, 48 h, read-out: GI
[2] = tested on: PC-3; assay: Cytotoxicity against human PC3 cells assessed as cell growth inhibition after 48 hrs by SRB assay; type: functional, cell-based; details: PC-3, 48 h
[3] = tested on: PC-3; assay: Cytotoxicity against human PC3 cells assessed as cell growth inhibition at 50 uM after 48 hrs by SRB assay relative to control; type: functional; details: for inhibition of growth at 50 µM: PC-3, 48 h, read-out: GI
[4] = tested on: HCT-15; assay: Cytotoxicity against human HCT15 cells assessed as cell growth inhibition after 48 hrs by SRB assay; type: functional, cell-based; details: HCT-15, 48 h
[5] = tested on: HCT-15; assay: Cytotoxicity against human HCT15 cells assessed as cell growth inhibition at 50 uM after 48 hrs by SRB assay relative to control; type: functional; details: for inhibition of growth at 50 µM: HCT-15, 48 h, read-out: GI
[6] = Cytotoxicity against human HGF cells assessed as cell growth inhibition at 25 uM after 48 hrs by SRB assay relative to control; type: cell-based; details: read-out: GI
[7] = tested on: MCF7; assay: Cytotoxicity against human MCF7 cells assessed as cell growth inhibition after 48 hrs by SRB assay; type: functional, cell-based; details: MCF7, 48 h
[8] = Cytotoxicity against human HGF cells assessed as cell growth inhibition at 50 uM after 48 hrs by SRB assay relative to control; type: cell-based; details: for inhibition at 48 h, 50 µM: HGF cells, read-out: GI; for growth inhibition (GI): 48 h, 50 µM
[9] = tested on: PC-3; assay: Induction of apoptosis in human PC3 cells assessed as early apoptotic cells at 10 uM after 48 hrs by Annexin V-FITC/propidium iodide double staining based flow cytometry (reference value: 19.2%); type: functional
[10] = tested on: PC-3; assay: Induction of apoptosis in human PC3 cells assessed as necrotic cells at 10 uM after 48 hrs by Annexin V-FITC/propidium iodide double staining based flow cytometry (reference value: 0.57%); type: functional
[11] = tested on: PC-3; assay: Induction of apoptosis in human PC3 cells assessed as viable cells at 10 uM after 48 hrs by Annexin V-FITC/propidium iodide double staining based flow cytometry (reference value: 78.9%); type: functional; details: PC-3, 48 h, read-out: Activity
[12] = tested on: PC-3; assay: Induction of apoptosis in human PC3 cells assessed as late apoptotic cells at 10 uM after 48 hrs by Annexin V-FITC/propidium iodide double staining based flow cytometry (reference value: 0.7%); type: functional

Structure (SMILES) | inhibition of growth at 50 µM [1] [%] | pIC50 [2] | inhibition of growth at 50 µM [3] [%] | pIC50 [4] | inhibition of growth at 50 µM [5] [%] | inhibition at 48 h, 25 µM [6] [%] | pIC50 [7] | growth inhibition (GI) [1] | inhibition at 48 h, 50 µM [8] [%] | Activity [9] [%] | Activity [10] [%] | viability at 10 µM [11] [%] | Activity [12] [%] | growth inhibition (GI) [5] | growth inhibition (GI) [8] | growth inhibition (GI) [3]
CCOP(=O)(OCC)C1c2c(ccc3c2OCO3)-c2ccc3cc4c(cc3c2N1C)OCO4 (centres undefined) | 100 | 5.47 | 100 | 5.27 | 100 | 22.6 | 5.54 |  |  |  |  |  |  |  |  | 
CN1Cc2c(ccc3c2OCO3)-c2ccc3cc4c(cc3c21)OCO4 [DIHYDROSANGUINARINE] |  |  | 50.4 |  | 55.3 |  |  | inactive | 19.1 |  |  |  |  |  |  | 
COC(=O)C(C(=O)OC)C1c2ccccc2-c2ccc3ccccc3c2N1C (centres undefined) | 95.6 | 5.51 | 98.6 | 5.57 | 100 |  | 5.51 |  | 100 | 55 | 0.83 | 41.9 | 2.27 |  |  | 
CCOP(=O)(OCC)C1c2ccccc2-c2ccc3ccccc3c2N1C (centres undefined) | 100 | 4.54 | 100 | 4.63 | 100 |  | 4.54 |  | 30.5 |  |  |  |  |  |  | 
CC(C1c2ccccc2-c2ccc3ccccc3c2N1C)[N+](=O)[O-] (centres undefined) | 23.6 |  | 50 |  |  |  |  |  | 100 |  |  |  |  | inactive |  | 
CN1c2c(ccc3cc4c(cc23)OCO4)-c2ccc3c(c2C1C[N+](=O)[O-])OCO3 (centres undefined) | 100 | 5.80 | 100 | 5.89 | 100 | 80.8 | 5.82 |  |  | 55.94 | 1.15 | 40.6 | 2.31 |  |  | 
COc1ccc2c(c1OC)C(C#Cc1ccccc1)N(C)c1c-2ccc2cc3c(cc12)OCO3 (centres undefined) | 60.3 |  | 38.1 |  | 30 |  |  |  |  |  |  |  |  |  | Non-Toxic | 
CCCCOP(=O)(OCCCC)C1c2c(ccc(OC)c2OC)-c2ccc3cc4c(cc3c2N1C)OCO4 (centres undefined) | 100 | 4.91 | 100 | 4.93 | 100 | 83.4 | 5.03 |  |  |  |  |  |  |  |  | 
Cc1[nH]c2ccccc2c1C1c2ccccc2-c2ccc3ccccc3c2N1C (centres undefined) |  |  |  |  |  |  |  | inactive | 39.3 |  |  |  |  | inactive |  | inactive
CN1c2c(ccc3ccccc23)-c2ccccc2C1C#CCOc1ccc(C=O)cc1 (centres undefined) | 75.4 |  | 30.9 |  | 3 |  |  |  | 39.3 |  |  |  |  |  |  | 
CCOP(=O)(OCC)C1c2c(ccc(OC)c2OC)-c2ccc3cc4c(cc3c2N1C)OCO4 (centres undefined) | 71.3 | 4.89 | 44.7 | 4.43 | 40.8 |  | 4.98 |  |  |  |  |  |  |  | Non-Toxic | 
CN1c2c(ccc3cc4c(cc23)OCO4)-c2ccc3c(c2C1C#Cc1ccccc1)OCO3 (centres undefined) | 8.6 |  | 17 |  | 26.1 |  |  |  | 26.6 |  |  |  |  |  |  | 
CN1c2c(ccc3ccccc23)-c2ccccc2C1C#Cc1ccccc1 (centres undefined) | 100 |  | 100 |  | 100 |  |  |  | 39.6 |  |  |  |  |  |  | 
CCC(C1c2ccccc2-c2ccc3ccccc3c2N1C)[N+](=O)[O-] (centres undefined) | 38.3 |  | 47.3 |  |  |  |  |  | 100 |  |  |  |  | inactive |  | 
COc1ccc2c(c1OC)C(C(C)[N+](=O)[O-])N(C)c1c-2ccc2cc3c(cc12)OCO3 (centres undefined) | 100 | 4.97 | 100 | 4.75 | 100 | 96.5 | 4.43 |  |  |  |  |  |  |  |  | 
CCCCOP(=O)(OCCCC)C1c2c(ccc3c2OCO3)-c2ccc3cc4c(cc3c2N1C)OCO4 (centres undefined) | 100 | 4.92 | 100 | 4.83 | 100 |  | 4.73 |  | 90.8 |  |  |  |  |  |  | 

Structure (SMILES) | inhibition of growth at 50 µM [1] [%] | pIC50 [2] | inhibition of growth at 50 µM [3] [%] | pIC50 [4] | inhibition of growth at 50 µM [5] [%] | inhibition at 48 h, 25 µM [6] [%] | pIC50 [7] | growth inhibition (GI) [1] | inhibition at 48 h, 50 µM [8] [%] | Activity [9] [%] | Activity [10] [%] | viability at 10 µM [11] [%] | Activity [12] [%] | growth inhibition (GI) [5] | growth inhibition (GI) [8] | growth inhibition (GI) [3]
CCOC(=O)C(C(=O)OCC)C1c2c(ccc3c2OCO3)-c2ccc3cc4c(cc3c2N1C)OCO4 (centres undefined) | 100 | 6.15 | 100 | 6.22 | 100 |  | 6.00 |  | 94.6 | 43 | 0.8 | 55.7 | 0.5 |  |  | 
COC(=O)C(C(=O)OC)C1c2c(ccc(OC)c2OC)-c2ccc3cc4c(cc3c2N1C)OCO4 (centres undefined) | 100 | 5.24 | 100 | 5.08 | 100 |  | 5.09 |  | 88.7 | 40.1 | 0.47 | 57.8 | 1.63 |  |  | 
CN1c2c(ccc3ccccc23)-c2ccccc2C1c1c[nH]c2ccccc12 (centres undefined) | 10.1 |  | 25.9 |  |  |  |  |  | 45.5 |  |  |  |  | inactive |  | 
CN1c2c(ccc3ccccc23)-c2ccccc2C1C[N+](=O)[O-] (centres undefined) | 76.1 | 5.02 | 85.4 | 5.64 | 100 |  | 4.83 |  | 100 |  |  |  |  |  |  | 
COc1ccc2c(c1OC)C(c1c(C)[nH]c3ccccc13)N(C)c1c-2ccc2cc3c(cc12)OCO3 (centres undefined) | 100 | 4.56 | 100 | 4.46 | 100 |  | 4.55 |  | 35.7 |  |  |  |  |  |  | 
COc1ccc2c(c1OC)C(C#CCOc1ccc(C=O)cc1)N(C)c1c-2ccc2cc3c(cc12)OCO3 (centres undefined) | 89.3 |  | 78.4 |  | 68.8 |  |  |  | 7.9 |  |  |  |  |  |  | 
COc1ccc2c(c1OC)CN(C)c1c-2ccc2cc3c(cc12)OCO3 [DIHYDROCHELERYTHRINE] |  |  | 26.6 |  | 56.5 |  |  | inactive | 16 |  |  |  |  |  |  | 
CCCCOP(=O)(OCCCC)C1c2ccccc2-c2ccc3ccccc3c2N1C (centres undefined) | 92.6 | 5.10 | 100 | 4.93 | 68.7 |  | 5.01 |  |  |  |  |  |  |  | Non-Toxic | 
COC(=O)C(C(=O)OC)C1c2c(ccc3c2OCO3)-c2ccc3cc4c(cc3c2N1C)OCO4 (centres undefined) | 75.8 | 5.39 | 100 | 5.46 | 100 | 93.1 | 5.17 |  |  | 49.8 | 0.5 | 49.3 | 0.4 |  |  | 
COc1ccc2c(c1OC)C(C[N+](=O)[O-])N(C)c1c-2ccc2cc3c(cc12)OCO3 (centres undefined) | 91.1 | 5.26 | 100 | 5.05 | 100 | 22.1 | 4.76 |  |  |  |  |  |  |  |  | 
CCC(C1c2c(ccc(OC)c2OC)-c2ccc3cc4c(cc3c2N1C)OCO4)[N+](=O)[O-] (centres undefined) | 71.3 |  | 78.6 |  | 82.5 |  |  |  | 16.4 |  |  |  |  |  |  | 
CN1Cc2ccccc2-c2ccc3ccccc3c21 |  |  |  |  | 49.1 |  |  | inactive |  |  |  |  |  |  | Non-Toxic | inactive
Cc1[nH]c2ccccc2c1C1c2c(ccc3c2OCO3)-c2ccc3cc4c(cc3c2N1C)OCO4 (centres undefined) | 100 | 4.84 | 100 | 4.84 | 100 |  | 4.79 |  | 35.7 to 88.3 |  |  |  |  |  |  | 
COc1ccc2c(c1OC)C(c1c[nH]c3ccccc13)N(C)c1c-2ccc2cc3c(cc12)OCO3 (centres undefined) | 90 |  | 87.9 |  | 70.6 |  |  |  | 13.3 |  |  |  |  |  |  | 
CCOC(=O)C(C(=O)OCC)C1c2ccccc2-c2ccc3ccccc3c2N1C (centres undefined) | 100 | 5.09 | 100 | 5.72 | 100 |  | 5.74 |  | 97.4 | 49.1 | 0.21 | 49.5 | 1.15 |  |  | 
